In assay [1] the target is Human β2 adrenoceptor (Homo sapiens, UniProt P07550). The conditions noted are these: read-out: B2 binding affinity.
Assay [2] addresses Human M3 receptor (Homo sapiens, UniProt P20309). The settings on record: read-out: M3 binding affinity.

Chain of Human M3 receptor (P20309 whole entry): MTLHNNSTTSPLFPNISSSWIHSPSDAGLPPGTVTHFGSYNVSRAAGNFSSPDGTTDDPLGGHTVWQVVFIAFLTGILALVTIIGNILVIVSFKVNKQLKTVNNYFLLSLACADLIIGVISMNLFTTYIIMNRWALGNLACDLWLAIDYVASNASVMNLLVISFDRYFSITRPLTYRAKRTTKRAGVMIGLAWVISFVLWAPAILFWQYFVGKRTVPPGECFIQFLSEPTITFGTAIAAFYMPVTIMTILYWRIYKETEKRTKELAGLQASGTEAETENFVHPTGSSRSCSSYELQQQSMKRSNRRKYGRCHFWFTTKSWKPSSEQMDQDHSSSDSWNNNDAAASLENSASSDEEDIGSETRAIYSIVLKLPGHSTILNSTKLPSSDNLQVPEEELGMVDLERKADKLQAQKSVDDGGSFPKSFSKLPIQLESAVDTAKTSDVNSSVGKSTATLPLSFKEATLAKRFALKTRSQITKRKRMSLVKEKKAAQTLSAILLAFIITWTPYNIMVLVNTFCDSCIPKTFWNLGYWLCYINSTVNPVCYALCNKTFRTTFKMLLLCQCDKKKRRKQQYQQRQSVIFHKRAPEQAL
Chain of Human β2 adrenoceptor (P07550 whole entry): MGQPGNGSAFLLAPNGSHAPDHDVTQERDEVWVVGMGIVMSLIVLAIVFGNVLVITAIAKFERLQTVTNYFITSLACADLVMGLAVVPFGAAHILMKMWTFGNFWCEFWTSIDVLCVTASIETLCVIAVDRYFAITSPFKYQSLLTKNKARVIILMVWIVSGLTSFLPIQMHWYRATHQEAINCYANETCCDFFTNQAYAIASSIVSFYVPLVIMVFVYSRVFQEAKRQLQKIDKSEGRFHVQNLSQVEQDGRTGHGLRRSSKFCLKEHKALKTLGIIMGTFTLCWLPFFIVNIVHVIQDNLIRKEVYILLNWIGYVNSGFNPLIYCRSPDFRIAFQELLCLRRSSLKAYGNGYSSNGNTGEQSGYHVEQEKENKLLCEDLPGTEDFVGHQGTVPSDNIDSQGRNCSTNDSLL

As to `O=C(COc1cccc([C@](O)(C(=O)OCC2CCN(Cc3ccccc3)CC2)c2ccccc2)c1)N1CCC2(CC1)CCN(C(=O)c1ccc(CNC[C@H](O)c3ccc(O)c4[nH]c(=O)ccc34)cc1)CC2` [Compound 64, (1-benzylpiperidin-4-yl)methyl (S)-2-hydroxy-2-(3-(2-(9-(4-((((R)-2-hydroxy-2-(8-hydroxy-2-oxo-1,2-dihydroquinolin-5-yl)ethyl)amino)methyl)benzoyl)-3,9-diazaspiro[5.5]undecan-3-yl)-2-oxoethoxy)phenyl)-2-phenylacetate], the IC50 in assay [1] is 0.3 to 3 nM; in assay [2], less than 0.3 nM.

In the case of `O=C(NCCCOc1cccc([C@](O)(C(=O)OCC2CCN(C3CCC3)CC2)c2ccccc2)c1)c1ccc(CNC[C@H](O)c2ccc(O)c3[nH]c(=O)ccc23)cc1` [Compound 161, (1-cyclobutylpiperidin-4-yl)methyl (S)-2-hydroxy-2-(3-(3-(4-((((R)-2-hydroxy-2-(8-hydroxy-2-oxo-1,2-dihydroquinolin-5-yl)ethyl)amino)methyl)benzamido)propoxy)phenyl)-2-phenylacetate], the IC50 in assay [1] was less than 0.3 nM; in assay [2], 0.3 to 3 nM.

As for `O=C(COc1cccc([C@](O)(C(=O)OCC2CCN(Cc3ccccc3)CC2)c2ccccc2)c1)N[C@H]1C[C@H](NC(=O)c2ccc(CNC[C@H](O)c3ccc(O)c4[nH]c(=O)ccc34)c(OC(F)(F)F)c2)C1` [Compound 141, (1-benzylpiperidin-4-yl)methyl (S)-2-hydroxy-2-(3-(2-(((1R,3S)-3-(4-((((R)-2-hydroxy-2-(8-hydroxy-2-oxo-1,2-dihydroquinolin-5-yl)ethyl)amino)methyl)-3-(trifluoromethoxy)benzamido)cyclobutyl)amino)-2-oxoethoxy)phenyl)-2-phenylacetate], the IC50 in assay [1] and in assay [2] was 0.3 to 3 nM in each case.

In the case of `O=C(COc1cccc([C@](O)(C(=O)OCC2CCN(Cc3ccccc3)CC2)c2ccccc2)c1)N[C@H]1CC[C@H](NC(=O)c2ccc(CNC[C@H](O)c3ccc(O)c4[nH]c(=O)ccc34)cc2)CC1` [Compound 62, (1-benzylpiperidin-4-yl)methyl (S)-2-hydroxy-2-(3-(2-(((1R,4S)-4-(4-((((R)-2-hydroxy-2-(8-hydroxy-2-oxo-1,2-dihydroquinolin-5-yl)ethyl)amino)methyl)benzamido)cyclohexyl)amino)-2-oxoethoxy)phenyl)-2-phenylacetate], the IC50 in assay [1] and in assay [2] was less than 0.3 nM each time.

Turning to `COc1cc(C(=O)N[C@H]2C[C@H](NC(=O)COc3cccc([C@](O)(C(=O)OCC4CCN(Cc5ccccc5)CC4)c4ccccc4)c3)C2)ccc1CNC[C@H](O)c1ccc(O)c2[nH]c(=O)ccc12` [Compound 131, (S)-(1-benzylpiperidin-4-yl)methyl 2-hydroxy-2-(3-(2-(((1R,3S)-3-(4-((((R)-2-hydroxy-2-(8-hydroxy-2-oxo-1,2-dihydroquinolin-5-yl)ethyl)amino)methyl)-3-methoxybenzamido)cyclobutyl)amino)-2-oxoethoxy)phenyl)-2-phenylacetate], the IC50 in assay [1] is less than 0.3 nM; in assay [2], 0.3 to 3 nM.

For the compound `O=C(NCC1CCN(C(=O)COc2cccc([C@](O)(C(=O)OCC3CCN(Cc4ccccc4)CC3)c3ccccc3)c2)CC1)c1ccc(CNC[C@H](O)c2ccc(O)c3[nH]c(=O)ccc23)cc1` [Compound 61, (1-benzylpiperidin-4-yl)methyl (S)-2-hydroxy-2-(3-(2-(4-((4-((((R)-2-hydroxy-2-(8-hydroxy-2-oxo-1,2-dihydroquinolin-5-yl)ethyl)amino)methyl)benzamido)methyl)piperidin-1-yl)-2-oxoethoxy)phenyl)-2-phenylacetate], the IC50 in assay [1] is less than 0.3 nM; in assay [2] it was 0.3 to 3 nM.

As for `O=C(c1ccc(CNC[C@H](O)c2ccc(O)c3[nH]c(=O)ccc23)cc1)N1C[C@@H]2CCN(C(=O)COc3cccc([C@](O)(C(=O)OCC4CCN(Cc5ccccc5)CC4)c4ccccc4)c3)[C@@H]2C1` [Compound 77, (1-benzylpiperidin-4-yl)methyl (S)-2-hydroxy-2-(3-(2-((3aS,6aS)-5-(4-((((R)-2-hydroxy-2-(8-hydroxy-2-oxo-1,2-dihydroquinolin-5-yl)ethyl)amino)methyl)benzoyl)hexahydropyrrolo[3,4-b]pyrrol-1(2H)-yl)-2-oxoethoxy)phenyl)-2-phenylacetate], the IC50 in assay [1] and in assay [2] was 0.3 to 3 nM in each case.

With `COc1cc(C(=O)NCC2CCN(C(=O)COc3cccc([C@](O)(C(=O)OCC4CCN(Cc5ccccc5)CC4)c4ccccc4)c3)CC2)ccc1CNC[C@H](O)c1ccc(O)c2[nH]c(=O)ccc12` [Compound 80, (1-benzylpiperidin-4-yl)methyl (S)-2-hydroxy-2-(3-(2-(4-((4-((((R)-2-hydroxy-2-(8-hydroxy-2-oxo-1,2-dihydroquinolin-5-yl)ethyl)amino)methyl)-3-methoxybenzamido)methyl)piperidin-1-yl)-2-oxoethoxy)phenyl)-2-phenylacetate], the IC50 in assay [1] was less than 0.3 nM; in assay [2], 0.3 to 3 nM.

As to `O=C(OCC1CCN(Cc2ccccc2)CC1)C(O)(c1cccc(OCCCCCNC[C@H](O)c2ccc(O)c3[nH]c(=O)ccc23)c1)C1CCCCC1` (stereo partly drawn) [Compound 10, (1-benzylpiperidin-4-yl)methyl 2-cyclohexyl-2-hydroxy-2-(3-((5-(((R)-2-hydroxy-2-(8-hydroxy-2-oxo-1,2-dihydroquinolin-5-yl)ethyl)amino)pentyl)oxy)phenyl)acetate], the IC50 in assay [1] and in assay [2] was 0.3 to 3 nM each time.

As to `O=C(COc1cccc([C@](O)(C(=O)OCC2CCN(Cc3ccccc3)CC2)c2ccccc2)c1)NCCNC(=O)c1ccc(CCNC[C@H](O)c2ccc(O)c3[nH]c(=O)ccc23)cc1` [Compound 103, (1-benzylpiperidin-4-yl)methyl (S)-2-hydroxy-2-(3-(2-((2-(4-(2-(((R)-2-hydroxy-2-(8-hydroxy-2-oxo-1,2-dihydroquinolin-5-yl)ethyl)amino)ethyl)benzamido)ethyl)amino)-2-oxoethoxy)phenyl)-2-phenylacetate], the IC50 is 0.3 to 3 nM in assay [1] and less than 0.3 nM in assay [2].

Consider `O=C(COc1cccc([C@](O)(C(=O)OCC2CCN(Cc3ccccc3)CC2)c2ccccc2)c1)N[C@@H]1CCCN(C(=O)c2ccc(CCNC[C@H](O)c3ccc(O)c4[nH]c(=O)ccc34)cc2)C1` [Compound 105, (1-benzylpiperidin-4-yl)methyl (S)-2-hydroxy-2-(3-(2-(((R)-1-(4-(2-(((R)-2-hydroxy-2-(8-hydroxy-2-oxo-1,2-dihydroquinolin-5-yl)ethyl)amino)ethyl)benzoyl)piperidin-3-yl)amino)-2-oxoethoxy)phenyl)-2-phenylacetate], for which the IC50 in assay [1] and in assay [2] was 0.3 to 3 nM in each case.

With `O=C(COc1cccc([C@](O)(C(=O)OCC2CCN(Cc3ccccc3)CC2)c2ccccc2)c1)NCC1CCN(C(=O)c2ccc(CCNC[C@H](O)c3ccc(O)c4[nH]c(=O)ccc34)cc2)CC1` [Compound 97, (1-benzylpiperidin-4-yl)methyl (S)-2-hydroxy-2-(3-(2-(((1-(4-(2-(((R)-2-hydroxy-2-(8-hydroxy-2-oxo-1,2-dihydroquinolin-5-yl)ethyl)amino)ethyl)benzoyl)piperidin-4-yl)methyl)amino)-2-oxoethoxy)phenyl)-2-phenylacetate], the values for the IC50 in assay [1] and in assay [2] were less than 0.3 nM and 0.3 to 3 nM, respectively.

For the origin of these results see patent US9579314B2 (priority 2015, dated 2017).
